Test system: integrin α2β1 expression in A549 cells
Assay: Integrin α2β1 expression in A549 cells after doxorubicin treatment
Type: cell-based, human
Conditions: doxorubicin 4 μg/mL

## COc1cccc2c1C(=O)c1c(O)c3c(c(O)c1C2=O)C[C@@](O)(C(=O)CO)C[C@@H]3O[C@H]1C[C@H](N)[C@H](O)[C@H](C)O1 [doxorubicin]
48 h, semi-quantitative, p < 0.01
  integrin α2 and β1 protein levels by Western blot after treatment: markedly higher level of both integrin proteins
48 h vs wild-type
  integrin α2β1 expression by FACS after treatment: clear shift in the abundance of integrin α2β1
